Where a name gives a salt, the structure may show the parent alone. Read-outs that look alike come from different tables or passages of the source.
Key:
1405R3 = test: High-throughput drug screen, CellTiter-Glo viability, 72 h; assay type: cell-based, human; design: AUC: scale not given here; conditions: 1405R3 DSRT analysis; for AUC: area under the dose-response curve; for MIN: lower asymptote of fitted dose-response curve; for EC50: fitted dose-response curve, Min.Conc.tested 1, Max.Conc.tested 10000, CellTiter-Glo, 72 h, read-out: EC50; for SLOPE: slope of fitted dose-response curve
Procedure: (§1) The cells were seeded and incubated with a gradient of concentrations of drugs for 72 h, after which the cell viability was assessed (Supplementary Fig. 1a). The drug library primarily comprises epigenetic drugs, including HDAC inhibitors, DNA methyltransferase inhibitors, and histone demethylase inhibitors, as well as conventional chemotherapies and kinase inhibitors (Supplementary Fig. 1b and Supplementary Table 1). […] To identify novel therapeutics against CCA, we conducted a high-throughput screen employing PerkinElmer’s integrated robotic Explorer G3 workstations. […] Following dilution to five specified concentrations, drugs were dispensed into 96-well plates in the sequence detailed in Supplementary Fig. 1a. The CCA cell lines were subsequently plated in 384-well plates at a density of 3000 cells per well in a 20 μL total volume. After a 24-h incubation, the compounds were added to the wells and incubated for 72 h. We then quantified cell viability via the CellTiter-Glo luminescent assay according to the manufacturer’s protocol. Signal detection was carried out on a Synergy2 plate reader operated by Gen5 software (BioTek). For data processing, the raw luminescence data were processed through the Breeze pipeline for curve fitting, yielding quality control metrics (e.g., Z-factors) and drug response parameters (AUC and DSS), as adapted from previous work.[54] Drug responses were evaluated on the basis of the drug sensitivity score (DSS), and a cutoff of ≥10 was used to define efficacy. The complete drug library and screening dataset are available in Supplementary Tables 1-3.
(§2) Supplementary Fig. 1. A high-throughput drug screen to identify drugs targeting CCA. a Schematic representation of the drug screening protocol. […] Each drug was tested at five different concentrations (10, 1, 0.1, 0.01, and 0.001 μM), and each treatment was replicated twice. b Classification of drugs used for screening.

783C-6 = test: as above; assay type: cell-based, human; design: AUC: scale not given here; conditions: for DSS: DSS calculated from the dose-response curve; for MIN: MIN of the fitted dose-response curve; for AUC: area under the dose-response curve; for EC50: 72 h, read-out: EC50; for SLOPE: slope of the fitted dose-response curve
Procedure: as §1, §2

[1] = 783C-6 DSRT analysis, CellTiter-Glo viability, fitted dose-response curve, Min.Conc.tested 1, Max.Conc.tested 10000

Compound | DSS (1405R3) | AUC (1405R3) | MIN (1405R3) | EC50 (1405R3; Homo sapiens) [nM] | DSS (783C-6; 783C-6 DSRT analysis) | MIN (783C-6; 783C-6 DSRT analysis) | AUC (783C-6; 783C-6 DSRT analysis) | EC50 (783C-6; Homo sapiens) [nM] | EC50 (1405R3) [nM] | SLOPE (1405R3) | EC50 (783C-6; [1]) [nM] | SLOPE (783C-6; 783C-6 DSRT analysis)
C#Cc1cccc(Nc2ncnc3cc(OC)c(OCCCCCCC(=O)NO)cc23)c1 [CUDC-101] | 10 | 85.7 | 2.9 | 1310 | 8.7 | 2.2 | 75.9 | 1680 | – | – | – | –
COc1ccc(-c2nc(N3CCOCC3)c3sc(CN(C)c4ncc(C(=O)NO)cn4)cc3n2)cn1 [CUDC-907] | 22.6 | 188.1 | 0.8 | 127 | 21.1 | 2.9 | 175.2 | 157 | – | – | – | –
C=CC(=O)Nc1cc2c(Nc3ccc(F)c(Cl)c3)ncnc2cc1OCCCN1CCOCC1 [Canertinib] | 0 | 33.5 | 78.5 | – | 0 | 75.6 | 7.4 | – | – | – | – | –
COc1cc2c(Oc3ccc4[nH]c(C)cc4c3F)ncnc2cc1OCCCN1CCCC1 [Cediranib] | 5.6 | 50.5 | 9.6 | 2810 | 2.4 | 57.8 | 23.3 | 2850 | – | – | – | –
N.N.[Cl][Pt][Cl] [Cisplatin] | 2 | 22.7 | 71.3 | – | 2 | 65.1 | 20.4 | – | 1650 | -1.8 | 2630 | -2.5
O=C(CCCCCCNC(=O)c1cnc(N(c2ccccc2)c2ccccc2Cl)nc1)NO [Citarinostat] | 3.5 | 32.3 | 46.8 | 2500 | 3.4 | 50.9 | 31.7 | 2280 | – | – | – | –
COc1cc(/C=C/C(=O)CC(=O)/C=C/c2ccc(O)c(OC)c2)ccc1O [Curcumin] | 0 | 1 | 97.3 | – | 0 | 96.8 | 2.1 | – | – | – | – | –
Cc1sc2c(c1C)C(c1ccc(Cl)cc1)=N[C@@H](CC(=O)NCCCCCCCCNC(=O)COc1cccc3c1C(=O)N(C1CCC(=O)NC1=O)C3=O)c1nnc(C)n1-2 (stereo partly shown) [DBET6] | 0.4 | 8.2 | 80 | – | 6.9 | 29.1 | 59.2 | – | – | -2.5 | 1470 | -2.5
O=C(/C=C/c1ccc(CN(CCO)CCc2c[nH]c3ccccc23)cc1)NO [Dacinostat] | 15.8 | 132.5 | 1.4 | 453 | 11.6 | 2.5 | 99 | 965 | – | – | – | –
CN(C)NC(=O)CCC(=O)O [Daminozide] | 0 | 0.1 | 99.6 | – | 0 | 97.8 | 1 | – | – | – | – | –
Nc1ncn([C@H]2C[C@H](O)[C@@H](CO)O2)c(=O)n1 [Decitabine] | 0 | 0.1 | 100 | – | 0.5 | 88.5 | 19.6 | – | – | – | – | –
CCCC(CCC)C(=O)O [Divalproex Sodium] | 0 | 0.1 | 100 | – | 0 | 96.3 | 0.4 | – | – | – | – | –
CN1CCN(c2ccc3nc(-c4c(N)c5c(F)cccc5[nH]c4=O)[nH]c3c2)CC1 [Dovitinib] | 4.2 | 38.6 | 29.8 | 2870 | 4.1 | 35.6 | 37 | 2700 | – | – | – | –
Cc1cc(Cl)ccc1OCCCC(=O)NO [Droxinostat] | 0 | 1.2 | 97.1 | – | 0 | 90.5 | 2.9 | – | – | -0.7 | – | -1
CCC(CC)n1ccc2c(C(=O)NCc3c(C)cc(C)[nH]c3=O)cc(C#N)cc21 [EI1] | 0 | 0.1 | 100 | – | 0 | 98.2 | 0.7 | – | – | -0.1 | – | -0.8
CC(C)N(CCCNC(=O)Nc1ccc(C(C)(C)C)cc1)C[C@H]1O[C@@H](n2ccc3c(N)ncnc32)[C@H](O)[C@@H]1O [EPZ004777] | 0 | 0.5 | 98.8 | – | 0 | 97.4 | 0.7 | – | – | – | – | –
O=C(NC[C@H](O)CN1CCc2ccccc2C1)c1cc(NC2COC2)ncn1 [EPZ015666] | 0 | 15.4 | 90.1 | – | 0 | 85 | 4.5 | – | – | – | – | –
CNCCN(C)Cc1cn[nH]c1-c1ccc(OC2CC(OCCC3CCOCC3)C2)cc1.Cl (stereo not shown) [EPZ020411 2HCl] | 0 | 0.3 | 97.2 | – | 0 | 96.5 | 1.7 | – | – | -2.5 | – | -0.6
Nc1ccccc1NC(=O)c1ccc(CNC(=O)OCc2cccnc2)cc1 [Entinostat] | 10 | 87.7 | 5.2 | 1200 | 9.1 | 8.3 | 78 | 1420 | – | – | – | –
COc1cccc2c1C(=O)c1c(O)c3c(c(O)c1C2=O)C[C@@](O)(C(=O)CO)C[C@@H]3O[C@H]1C[C@H](N)[C@@H](O)[C@H](C)O1 [Epirubicin] | 7.1 | 64.9 | 27.7 | 1310 | 13.9 | 33.9 | 113.1 | 194 | – | – | – | –
C#Cc1cccc(Nc2ncnc3cc(OCCOC)c(OCCOC)cc23)c1 [Erlotinib HCl] | 0 | 27.3 | 82.4 | – | 0 | 77 | 6.9 | – | – | – | – | –
COc1cc2c(Oc3ccc(NC(=O)C4(C(=O)Nc5ccc(F)cc5)CC4)cc3F)ccnc2cc1OCCCN1CCOCC1 [Foretinib] | 2.9 | 27.8 | 51.5 | 2710 | 4.1 | 32.7 | 37.2 | 2850 | – | – | – | –
CC[C@H](C)n1cc(C)c2c(C(=O)NCc3c(C)cc(C)[nH]c3=O)cc(-c3ccc(N4CCNCC4)nc3)cc21 [GSK126] | 0 | 22.4 | 85.6 | – | 0 | 91 | 2.7 | – | – | -0.1 | – | -1
CCCc1cc(C)[nH]c(=O)c1CNC(=O)c1cc(-c2ccnc(N3CCN(C)CC3)c2)cc2c1cnn2C(C)C [GSK343] | 0 | 13.6 | 91.2 | – | 0 | 98.1 | 2.9 | – | – | – | – | –
O=C(CCc1ccc(CN[C@H](C(=O)OC2CCCC2)C2CCCCC2)cn1)NO [GSK3117391] | 8.4 | 74.7 | 7.4 | – | 7.5 | 4.1 | 65.5 | – | 1580 | -1.9 | 2090 | -2.5
O=C(O)CCNc1cc(N2CCc3ccccc3CC2)nc(-c2ccccn2)n1 [GSK J1] | 0 | 0.1 | 100 | – | 0 | 99.9 | 0 | – | – | -0.1 | – | -1.3
CCOC(=O)CCNc1cc(N2CCc3ccccc3CC2)nc(-c2ccccn2)n1 [GSK J4 HCl] | 2.7 | 26.1 | 65 | 1800 | 0 | 70.3 | 8.9 | – | – | – | – | –

Source: article PMC12518634, “The noncanonical function of liver-type phosphofructokinase potentiates the efficacy of HDAC inhibitors in cancer” (Signal Transduction and Targeted Therapy, 2025)
